This note sets out measurements from the supplement of paper PMC11061612.

Assay in all cases: Bliss excess, mean over the matrix (fraction); higher = more synergy
For assay [1], the system named is COLO-678 (Colorectal Carcinoma). Summed up: (§1)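 After 24 hours at 37°C and 5% CO2 in 1536-well plates, cells in DMEM/F12 or RPMI plus 10% FBS received two-drug dose matrices for 72 hours. Viability came from CellTiter-Glo 2.0 luminescence and was scaled as inhibition, anchored at 0 by vehicle wells and at 1 by blank wells. Combination Emax is taken as the second-highest inhibition in the matrix, and Bliss excess as the observed combination effect less EA + EB − EA·EB, with EA and EB the single-agent effects.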

The subject of another assay is CHP-212 (Neuroblastoma). Summed up: as §1
Assay [2] relates to HDQ-P1 (Breast Carcinoma). Summed up: as §1
In assay [3] the test system is MS751 (Cervical Carcinoma). The gist of the method:
as §1

Assay [4] has as its system BL-41 (Burkitt's Lymphoma). Summed up:
as §1

A further assay deals with ES1 (Ewing's Sarcoma). The gist of the method: as §1
The subject of assay [5] is BFTC-905 (Bladder Carcinoma). Summed up: as §1
Assay [6] concerns L-540 (Hodgkin's Lymphoma). Summed up:
as §1

The next assay has as its system WIL2-NS (Non-Cancerous). The gist of the method: as §1
For assay [7], the system named is SW837 (Colorectal Carcinoma). The gist of the method: as §1
Assay [8] has as its system SU-DHL-8 (B-Cell Non-Hodgkin's Lymphoma). The gist of the method:
as §1

For assay [9], the system named is KARPAS-45 (T-Lymphoblastic Leukemia). The gist of the method:
as §1

Assay [10] deals with CAMA-1 (Breast Carcinoma). The gist of the method:
as §1

In assay [11] the test system is TOV-112D (Ovarian Carcinoma). Summed up:
as §1

A further assay has as its system MEL-JUSO (Melanoma). The gist of the method:
as §1

The subject of assay [12] is SW1417 (Colorectal Carcinoma). The gist of the method: as §1
In another assay the test system is NCI-H2818 (Mesothelioma). The gist of the method:
as §1

In another assay the test system is U251 (Low Grade Glioma). Summed up:
as §1

Assay [13] deals with DND-41 (T-Lymphoblastic Leukemia). The gist of the method: as §1
Assay [14] relates to KM12 (Colorectal Carcinoma). The gist of the method:
as §1

The structures appear in SMILES notation.

For the molecule `NC1(C(=O)N[C@@H](CCO)c2ccc(Cl)cc2)CCN(c2ncnc3[nH]ccc23)CC1` [Capivasertib] + COc1nnc2ccc(N3CCC(c4ccc(OCCN5CCN(C)C(=O)[C@H]5C)cc4)CC3)nn12 [AZD5153] (first compound max 10 µM, 7x7, partner max 1 µM), the Bliss excess in [1] was -0.0688; in the assay on CHP-212 (Neuroblastoma), 0.0469; in [2] it was 0.0651; in [3], -0.0065; in assay [4] it was 0.036; in the assay on ES1 (Ewing's Sarcoma), 0.035. In addition, the Bliss excess in assay [5] was -0.0346; in assay [6], -0.0794; in the assay on WIL2-NS (Non-Cancerous) it was -0.0933; in [7], -0.0301; in assay [8] it was 0.0407; in assay [9] it was 0.0133. Further, the Bliss excess in assay [10] was 0.106; in [11] it was 0.0088; in the assay with MEL-JUSO (Melanoma), -0.0049; in assay [12] it was -0.0135; in the assay with NCI-H2818 (Mesothelioma) it was 0.0025; in the assay on U251 (Low Grade Glioma), 0.0284. For the same molecule, the values for the Bliss excess in [13] and in assay [14] were 0.0339 and 0.0143, respectively.

`NC1(C(=O)N[C@@H](CCO)c2ccc(Cl)cc2)CCN(c2ncnc3[nH]ccc23)CC1` [Capivasertib] + C[C@@H]1COCCN1C2=NC(=NC(=C2)C3(CC3)[S@](=N)(=O)C)C4=C5C=CNC5=NC=C4 [AZD6738] (first compound max 10 µM, 7x7, partner max 10 µM): the Bliss excess in assay [1] was -0.051; with CHP-212 (Neuroblastoma) it was -0.0156; in assay [2], -0.0178; in [3], -0.0156; in [4], -0.0552; in the assay with ES1 (Ewing's Sarcoma) it was -0.0448. The Bliss excess in [5] is -0.0391; in assay [6], -0.0059; with WIL2-NS (Non-Cancerous) it was -0.0529; in assay [7], -0.0862; in assay [8], -0.0045; in [9] it was -0.0238. Besides, the Bliss excess is -0.0149 in [10]; -0.0632 in assay [11]; 0.0083 in the assay with MEL-JUSO (Melanoma); -0.0282 in [12]; -0.0315 in the assay on NCI-H2818 (Mesothelioma); -0.0006 with U251 (Low Grade Glioma). Besides, the Bliss excess is -0.0221 in assay [13] and 0.0297 in [14].

With `NC1(C(=O)N[C@@H](CCO)c2ccc(Cl)cc2)CCN(c2ncnc3[nH]ccc23)CC1` [Capivasertib] + Cn1cnc2c(F)c(Nc3ccc(Br)cc3Cl)c(C(=O)NOCCO)cc21 [Selumetinib] (first compound max 10 µM, 7x7, partner max 10 µM), the Bliss excess in assay [1] was -0.0398; with CHP-212 (Neuroblastoma), -0.0277; in assay [2], -0.0046; in assay [3], 0.0024; in assay [4], 0.0106; in the assay on ES1 (Ewing's Sarcoma), 0.0724. The Bliss excess in assay [5] is -0.0047; in assay [6], -0.0345; with WIL2-NS (Non-Cancerous), 0.0482; in [7], -0.0357; in assay [8], -0.0214; in assay [9] it was 0.0796. The Bliss excess in assay [10] is 0.0187; in [11], 0.0272; in the assay with MEL-JUSO (Melanoma) it was 0.0315; in assay [12] it was 0.0152; in the assay on NCI-H2818 (Mesothelioma), -0.0014; in the assay on U251 (Low Grade Glioma) it was 0.0099. For the same molecule, the Bliss excess in assay [13] is 0.0293; in assay [14] it was 0.016.

As for `Cc1nc(Nc2ncc(C(=O)Nc3c(C)cccc3Cl)s2)cc(N2CCN(CCO)CC2)n1` [Dasatinib] + CC(=O)Nc1cccc(-n2c(=O)n(C3CC3)c(=O)c3c(Nc4ccc(I)cc4F)n(C)c(=O)c(C)c32)c1 [Trametinib] (first compound max 2 µM, 7x7, partner max 1 µM), the Bliss excess was -0.0945 in assay [1]; 0.0235 with CHP-212 (Neuroblastoma); -0.0033 in [2]; -0.0099 in assay [3]; 0.0075 in assay [4]; -0.0643 with ES1 (Ewing's Sarcoma). Besides, the Bliss excess was 0.0926 in [5]; -0.0484 in [6]; 0.133 with WIL2-NS (Non-Cancerous); 0.0448 in assay [7]; -0.0242 in assay [8]; 0.0017 in [9]. The Bliss excess was -0.0382 in assay [10]; 0.0773 in assay [11]; -0.0878 in the assay on MEL-JUSO (Melanoma); 0.131 in assay [12]; -0.0109 with NCI-H2818 (Mesothelioma); 0.0682 in the assay with U251 (Low Grade Glioma). Besides, the figures for the Bliss excess in assay [13] and in assay [14] were -0.0333 and -0.108, respectively.

Turning to `COc1cccc2c1C(=O)c1c(O)c3c(c(O)c1C2=O)C[C@@](O)(C(=O)CO)C[C@@H]3O[C@H]1C[C@H](N)[C@H](O)[C@H](C)O1` [Doxorubicin] + Cc1cc2ncnn2cc1Nc1ncc2c(n1)n(C1CCOCC1)c(=O)n2C [AZD7648] (first compound max 1 µM, 7x7, partner max 10 µM), the Bliss excess in assay [1] was determined as 0.0188; in the assay on CHP-212 (Neuroblastoma), 0.0611; in assay [2] it was 0.0561; in [3], 0.135; in [4], 0.0714; in the assay on ES1 (Ewing's Sarcoma), 0.119. In addition, the Bliss excess in assay [5] was 0.131; in assay [6] it was 0.0793; in the assay with WIL2-NS (Non-Cancerous), 0.0885; in assay [7] it was 0.0068; in [8] it was 0.0145; in assay [9], -0.0006. In addition, the Bliss excess in [10] was 0.0266; in [11], 0.0679; in the assay with MEL-JUSO (Melanoma), 0.0309; in [12], 0.0216; in the assay on NCI-H2818 (Mesothelioma), -0.0019; in the assay on U251 (Low Grade Glioma), 0.0913. Moreover, the Bliss excess in [13] turned out to be 0.115; in [14] it was 0.0554.

As for `COc1cc2ncnc(Nc3ccc(F)c(Cl)c3)c2cc1OCCCN1CCOCC1` [Gefitinib] + CC(C)n1c(=O)n(C)c2cnc3cc(F)c(-c4ccc(OCCCN5CCCCC5)nc4)cc3c21 [AZD1390] (first compound max 10 µM, 7x7, partner max 0.3 µM), the Bliss excess in assay [1] is -0.111; in the assay on CHP-212 (Neuroblastoma), -0.0352; in assay [2] it was -0.114; in [3] it was -0.0614; in assay [4], 0.003; with ES1 (Ewing's Sarcoma) it was -0.0432. The Bliss excess in assay [5] is -0.0821; in [6], -0.0591; in the assay on WIL2-NS (Non-Cancerous), -0.0241; in assay [7], -0.06; in assay [8], -0.0157; in assay [9], -0.0543. In addition, the Bliss excess is -0.0434 in assay [10]; -0.0392 in assay [11]; -0.0857 in the assay with MEL-JUSO (Melanoma); -0.0456 in [12]; -0.0707 in the assay with NCI-H2818 (Mesothelioma); -0.0624 in the assay with U251 (Low Grade Glioma). The values for the Bliss excess in assay [13] and in [14] were -0.0309 and -0.0406, respectively.

`CS(=O)(=O)CCNCc1ccc(-c2ccc3ncnc(Nc4ccc(OCc5cccc(F)c5)c(Cl)c4)c3c2)o1` [Lapatinib] + C[C@@H](Oc1cc(-c2cnn(C3CCNCC3)c2)cnc1N)c1c(Cl)ccc(F)c1Cl [Crizotinib] (first compound max 10 µM, 7x7, partner max 10 µM): the Bliss excess in assay [1] was -0.0488; in the assay on CHP-212 (Neuroblastoma), -0.0741; in [2], -0.0144; in assay [3], 0.0207; in assay [4], -0.0236; in the assay on ES1 (Ewing's Sarcoma), -0.0346. In addition, the Bliss excess in assay [5] was -0.0525; in assay [6], -0.0731; with WIL2-NS (Non-Cancerous), -0.0273; in assay [7], -0.0345; in [8], 0.0546; in assay [9], 0.0044. Also, the Bliss excess was -0.0178 in assay [10]; 0.0028 in assay [11]; -0.034 in the assay with MEL-JUSO (Melanoma); -0.0165 in assay [12]; -0.0019 in the assay on NCI-H2818 (Mesothelioma); -0.0586 in the assay with U251 (Low Grade Glioma). Also, the Bliss excess in assay [13] is -0.0272; in assay [14], -0.0327.
